Values joined by “and” are separate entries in the source; they are usually repeats but may differ in a detail not shown here. Equal values may be shown once. Active and inactive are the calls of the source.
Tests used:
[1] = molecular target: Cytochrome P450 2C19 (Homo sapiens, UniProt P33261); assay: Cytochrome panel assay with activity outcomes. Panel member name: p450-cyp2c19 Compounds with AC50 equal or less than 10 uM are considered active; assay type: functional
[2] = molecular target: T1, Cytochrome P450 1A2 (Homo sapiens, UniProt P05177)
T1 sequence (P05177 whole entry): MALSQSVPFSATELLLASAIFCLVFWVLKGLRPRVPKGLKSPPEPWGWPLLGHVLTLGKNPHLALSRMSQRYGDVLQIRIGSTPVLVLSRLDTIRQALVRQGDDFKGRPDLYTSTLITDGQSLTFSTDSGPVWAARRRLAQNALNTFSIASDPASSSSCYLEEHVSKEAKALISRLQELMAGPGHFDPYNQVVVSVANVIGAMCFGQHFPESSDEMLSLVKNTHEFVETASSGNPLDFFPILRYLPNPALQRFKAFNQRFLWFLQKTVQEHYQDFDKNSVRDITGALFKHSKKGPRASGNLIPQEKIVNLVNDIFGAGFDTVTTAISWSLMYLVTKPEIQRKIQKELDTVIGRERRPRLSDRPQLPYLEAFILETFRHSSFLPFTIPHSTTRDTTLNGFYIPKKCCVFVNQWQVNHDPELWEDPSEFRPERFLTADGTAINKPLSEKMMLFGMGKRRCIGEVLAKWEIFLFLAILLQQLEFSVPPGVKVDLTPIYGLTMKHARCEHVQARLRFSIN

[3] = molecular target: Cytochrome P450 3A4 (Homo sapiens, UniProt P08684);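 also: CYP3A4 tested as one member of a cytochrome P450 panel screen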
[4] = molecular target: T2, Replicative DNA helicase DnaB (Mycobacterium tuberculosis, UniProt P9WMR3); assay: DnaB intein splicing inhibitors, dose response, biochemical, cell-free fluorescence (AID 449749); assay type: functional
T2 sequence (P9WMR3 whole entry): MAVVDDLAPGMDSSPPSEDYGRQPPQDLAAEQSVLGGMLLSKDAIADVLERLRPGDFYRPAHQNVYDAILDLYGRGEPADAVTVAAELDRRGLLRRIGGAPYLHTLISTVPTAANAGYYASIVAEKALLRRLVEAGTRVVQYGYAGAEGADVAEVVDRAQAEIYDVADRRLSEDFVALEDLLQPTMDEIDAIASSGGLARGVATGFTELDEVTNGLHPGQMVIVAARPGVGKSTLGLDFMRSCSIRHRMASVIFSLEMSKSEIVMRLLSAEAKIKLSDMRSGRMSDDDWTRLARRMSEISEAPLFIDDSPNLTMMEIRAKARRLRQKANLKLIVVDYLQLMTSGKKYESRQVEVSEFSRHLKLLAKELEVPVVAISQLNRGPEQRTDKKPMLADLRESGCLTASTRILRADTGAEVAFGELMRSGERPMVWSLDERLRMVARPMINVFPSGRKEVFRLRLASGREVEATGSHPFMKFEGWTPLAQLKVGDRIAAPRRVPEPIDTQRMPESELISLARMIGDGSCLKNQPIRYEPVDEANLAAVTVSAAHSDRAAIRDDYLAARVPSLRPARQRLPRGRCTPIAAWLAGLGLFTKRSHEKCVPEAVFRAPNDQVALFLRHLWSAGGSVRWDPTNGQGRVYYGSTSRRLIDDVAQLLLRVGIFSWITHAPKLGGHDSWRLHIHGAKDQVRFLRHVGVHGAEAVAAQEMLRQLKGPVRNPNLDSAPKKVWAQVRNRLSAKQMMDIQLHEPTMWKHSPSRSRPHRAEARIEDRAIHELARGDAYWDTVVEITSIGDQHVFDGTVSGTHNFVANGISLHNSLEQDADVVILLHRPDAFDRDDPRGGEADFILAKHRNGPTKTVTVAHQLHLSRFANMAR

[5] = molecular target: T3, Protein RecA (Mycobacterium tuberculosis, UniProt P9WHJ3); assay: Fluorescence Cell-Free Homogeneous Dose Retest to Identify Inhibitors of RecA-Intein Splicing Activity. [Related pubchem assays (depositor defined):AID2097, AID2223, AID489010, AID492950]; assay type: functional
T3 sequence (P9WHJ3 whole entry): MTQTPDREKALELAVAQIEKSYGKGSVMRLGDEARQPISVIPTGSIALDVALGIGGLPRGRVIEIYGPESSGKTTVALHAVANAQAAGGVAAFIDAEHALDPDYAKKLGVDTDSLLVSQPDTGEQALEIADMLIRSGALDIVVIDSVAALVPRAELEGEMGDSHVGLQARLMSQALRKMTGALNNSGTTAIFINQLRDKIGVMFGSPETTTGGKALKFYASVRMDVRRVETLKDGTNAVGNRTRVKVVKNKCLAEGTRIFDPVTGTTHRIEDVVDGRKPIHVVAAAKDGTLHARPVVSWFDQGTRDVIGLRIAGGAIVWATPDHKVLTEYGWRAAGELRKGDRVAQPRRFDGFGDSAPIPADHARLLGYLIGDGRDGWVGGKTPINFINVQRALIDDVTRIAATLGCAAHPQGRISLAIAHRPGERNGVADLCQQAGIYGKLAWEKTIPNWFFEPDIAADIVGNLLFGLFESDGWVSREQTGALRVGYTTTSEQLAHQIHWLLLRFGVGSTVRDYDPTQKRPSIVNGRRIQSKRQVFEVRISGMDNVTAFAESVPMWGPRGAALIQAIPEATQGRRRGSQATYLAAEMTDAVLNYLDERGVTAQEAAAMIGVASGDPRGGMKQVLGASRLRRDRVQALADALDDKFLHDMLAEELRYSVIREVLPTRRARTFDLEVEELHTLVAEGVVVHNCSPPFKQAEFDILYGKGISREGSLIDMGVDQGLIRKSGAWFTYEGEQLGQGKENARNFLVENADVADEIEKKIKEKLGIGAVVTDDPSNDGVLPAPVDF

[6] = tested on: Streptococcus sp. 'group A'; assay: Streptococcus pyogenes SK(-)GAS viability under kanamycin – luminescence, BacTiterGlo, confirmation, counter-screen for streptokinase expression inhibitor project, dose response (AID 1900); assay type: functional, organism-based
[7] = tested on: Streptococcus; assay: GAS UMAA2166 growth inhibition – luminescence, BacTiterGlo, counter-screen for streptokinase expression inhibitor project, dose response (AID 1915); assay type: functional, organism-based;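 also: potency for reduction of bacterial viability or growth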
[8] = Luminescence Cell-Based Dose Retest to Confirm Inhibitors of Cancer Stem Cells. [Related pubchem assays (depositor defined):AID2717, AID2721]; assay type: functional; conditions: Homo sapiens

Chain of Cytochrome P450 2C19 (P33261 whole entry): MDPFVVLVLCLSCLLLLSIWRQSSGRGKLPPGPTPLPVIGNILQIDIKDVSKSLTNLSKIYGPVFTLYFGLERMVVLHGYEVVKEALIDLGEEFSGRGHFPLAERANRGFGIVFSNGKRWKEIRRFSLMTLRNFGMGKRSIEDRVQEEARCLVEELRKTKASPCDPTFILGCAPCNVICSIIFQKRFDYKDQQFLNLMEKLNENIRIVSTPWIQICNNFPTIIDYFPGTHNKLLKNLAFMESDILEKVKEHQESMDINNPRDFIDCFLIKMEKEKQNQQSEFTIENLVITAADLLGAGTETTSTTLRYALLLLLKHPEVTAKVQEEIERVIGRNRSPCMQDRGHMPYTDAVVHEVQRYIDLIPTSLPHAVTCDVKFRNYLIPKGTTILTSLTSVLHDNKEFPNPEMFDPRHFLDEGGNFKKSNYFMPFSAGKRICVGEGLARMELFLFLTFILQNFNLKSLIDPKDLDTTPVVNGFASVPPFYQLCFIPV
Chain of Cytochrome P450 3A4 (P08684 whole entry): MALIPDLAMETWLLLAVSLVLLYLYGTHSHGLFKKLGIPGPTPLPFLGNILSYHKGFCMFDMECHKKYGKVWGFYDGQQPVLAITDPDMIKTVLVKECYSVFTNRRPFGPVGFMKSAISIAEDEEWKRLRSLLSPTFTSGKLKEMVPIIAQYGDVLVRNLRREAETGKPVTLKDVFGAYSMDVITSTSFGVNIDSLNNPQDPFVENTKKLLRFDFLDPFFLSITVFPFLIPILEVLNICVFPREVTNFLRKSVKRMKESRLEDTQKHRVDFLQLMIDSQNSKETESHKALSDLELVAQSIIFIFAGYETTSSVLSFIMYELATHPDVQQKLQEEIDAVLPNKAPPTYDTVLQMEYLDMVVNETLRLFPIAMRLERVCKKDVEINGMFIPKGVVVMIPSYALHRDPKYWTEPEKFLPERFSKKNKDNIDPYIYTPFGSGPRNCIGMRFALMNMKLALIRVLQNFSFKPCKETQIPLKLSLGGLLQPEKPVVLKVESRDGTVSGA

## COc1cccc(Cn2c(=O)cnc3cnc(Oc4ccccc4)nc32)c1
[1]; read-out: AC50
  AC50: 5.01 µM (inconclusive)

## COCCn1c(=O)c(-c2cc(F)cc(F)c2)nc2cnc(N3CCOCC3)nc21
[2]
  AC50: 12.6 µM (inconclusive)

## O=c1c(-c2ccc(Cl)cc2)nc2cncnc2n1Cc1ccccc1
[1]; read-out: AC50
  AC50: 25.1 µM (inconclusive)
[3]
  AC50: 10 µM (inconclusive)

## CC(C)C(O)(C(C)C)C(C)C
[1]
  AC50: inconclusive

## Cc1ccc(-c2nc(CN3CCCC(C(=O)N4CCOCC4)C3)c(C)o2)cc1 (stereo not given)
[4]
  AC50: > 380 µM (inactive)
[5]
  EC50: > 380 µM (inactive)

## CCOc1ccc(-c2[nH]nc3c2C(c2ccc(O)cc2)C(C#N)=C(N)O3)cc1 (stereo not given)
[4]
  AC50: 4.62 µM (active)
[5]
  EC50: 1.75 µM (active)

## COc1ccc(CC(=O)O/N=C(\N)Cc2ccc(OC)cc2)cc1
[1]; read-out: AC50
  AC50: 14.1 µM (inconclusive)

## SC1=NCCC12C(S)=Nc1ccccc12 (stereo not given)
[4]
  AC50: > 380 µM (inactive)
[5]
  EC50: > 380 µM (inactive)

## O=C1[C@H]2O[C@@H]2[C@@H](O)[C@H]2[C@H]1CCn1c(=O)n(Cc3cc4c(cc3Cl)OCO4)c(=O)n12
[3]
  AC50: 3.16 µM (inconclusive)

## C/C(CC(=O)Nc1ccccn1)=N\NC(=O)c1ccc(C)cc1
[4]
  AC50: 20.4 µM (active)
[5]
  EC50: 8.84 µM (active)

## CC(C)(C)n1nc2c(c1NC(=O)c1ccc(S(=O)(=O)N3CCCCC3)cc1)C[S+]([O-])C2 (stereo not given)
[1]; read-out: AC50
  AC50: 25.1 µM (inconclusive)
[3]
  AC50: 14.1 µM (inconclusive)

## CC(=O)NCCNc1ncnc2ccc(-c3c(C)noc3C)cc12
[3]
  AC50: 25.1 µM (inconclusive)

## CC(C)C12CN3CC(C(C)C)(CN(C1)C3c1ccco1)C2=O (stereo not given)
[1]; read-out: AC50
  AC50: 28.2 µM (inconclusive)

## O=C(C1CC(=O)N(C2CCCC2)C1)N1CCC2(CC1)OCCO2 (stereo not given)
[1]; read-out: AC50
  AC50: 39.8 µM (inconclusive)

## COc1ccc(NC(=O)CSc2nc(O)cc(=O)n2-c2ccccc2)cc1
[6]
  EC50: 23.1 µM (active)
[7]
  EC50: 26.1 µM (active)

## CN1CCN(c2ccc(NC(=O)c3ccc(C#N)cc3F)cc2Cl)CC1
[8]
  AC50: 11.9 µM (active)

## O=C(Nc1ccc(O)c(-c2nc3ccccc3o2)c1)C1(c2ccc(Br)cc2)CCCC1
[8]
  AC50: > 195 µM (inactive)

## C#CCCCO/N=C1/C[C@@H](O)[C@@H](O)[C@@H]2[C@@H]3C(=O)N(CCC(=O)OCC)C(=O)[C@H]3CC[C@H]12
[3]
  AC50: 5.01 µM (inconclusive)

## CC1=NNC(=O)C1Oc1ccccc1 (stereo not given)
[4]
  AC50: 0.737 µM (active)
[5]
  EC50: 0.57 µM (active)

## CC1(C)CCC[C@]2(C)[C@H]3Cc4cc(O)ccc4O[C@]3(C)CC[C@@H]12
[8]
  AC50: 4.75 µM (active)

## OC[C@@H]1O[C@@H](n2cnc3c(NC4CCCCC4)ncnc32)[C@@H](O)[C@H]1O
[1]; read-out: AC50
  AC50: 0.0251 µM (inconclusive)

## CCCc1nc2ccccc2c(=O)n1/N=C/c1c(C)nn(-c2ccc(C)cc2)c1O
[6]
  EC50: 2.87 µM (active)
[7]
  EC50: 9.16 µM (active)

## COc1ccc(-n2c(=O)c(C)nc3cnc(N4CCOCC4)nc32)cc1
[3]
  AC50: 31.6 µM (inconclusive)

## Cn1c(-c2ccc3c(c2)OCO3)cc(=O)c2ccccc21 [GRAVEOLINE]
[1]; read-out: AC50
  AC50: 2 µM (inconclusive)

## Cc1noc(C)c1C(=O)N1CCC[C@@]2(CCN(C(=O)Nc3ccccc3)C2)C1
[2]
  AC50: 39.8 µM (inconclusive)

## CN(C)c1ncc2nc(-c3cc(F)cc(F)c3)c(=O)n(C[C@H]3CCCO3)c2n1
[2]
  AC50: 0.0794 µM (inconclusive)

## C[C@@H](C(=O)Nc1ccc2ccccc2c1)[C@@H]1C[C@@]1(C)[C@@H](NC(=O)c1cnccn1)c1ccccc1
[2]
  AC50: 12.6 µM (inconclusive)

## O=c1cc(N2CCC(Cc3ccccc3)CC2)[nH]c(=O)n1C1CCCCC1
[3]
  AC50: 3.55 µM (inconclusive)

## COC(=O)COc1ccsc1C(=O)OC
[2]
  AC50: 28.2 µM (inconclusive)

## COCCNc1nc(-c2cccc(NS(C)(=O)=O)c2)nc2ccccc12
[1]; read-out: AC50
  AC50: 39.8 µM (inconclusive)

## O=C(NC(=S)Nc1nc(-c2ccc(Br)cc2)cs1)c1cccnc1
[2]
  AC50: 3.55 µM (inconclusive)

## CC(Oc1ccccc1)C(=O)Nc1nc2c(s1)C(=O)CC(C)(C)C2 (stereo not given)
[2]
  AC50: 15.8 µM (inconclusive)

## Cc1cc(NC(=O)C2CCCC2)n(-c2nc3ccccc3[nH]2)n1
[1]; read-out: AC50
  AC50: 10 µM (inconclusive)

## N#Cc1ncc(-c2ccc3c(c2)OCCOCCOCCOCCO3)nc1C#N
[5]
  EC50: 8.97 µM (active)

## COC(=O)C/C=C\[C@@H](C)[C@@H](/C=N\O[C@@H](C)c1cn([C@H]2COC[C@H]2O)nn1)OC
[1]
  AC50: inconclusive

## O=C(O)COc1ccc(/C=C2/SC(=S)N(Cc3ccccc3)C2=O)cc1
[4]
  AC50: 13.7 µM (active)
[5]
  EC50: 8.33 µM (active)

## COc1ccc(Oc2ncc3ncc(=O)n(C)c3n2)cc1
[1]; read-out: AC50
  AC50: 31.6 µM (inconclusive)
[3]
  AC50: 25.1 µM (inconclusive)

## O=C(NC(=S)Nc1cccc(Cl)c1N1CCCCC1)c1cccs1
[8]
  AC50: 2.08 µM (active)

## Nc1ccccc1S(=O)(=O)NC1=NCCCCC1
[4]
  AC50: > 380 µM (inactive)
[5]
  EC50: > 380 µM (inactive)

## C[C@](N)(C(=O)O)c1ccc(-c2nnn[nH]2)cc1
[1]; read-out: AC50
  AC50: 7.94 µM (inconclusive)
[2]
  AC50: 39.8 µM (inconclusive)

## CC(=O)C(Sc1ncnc2c1nnn2-c1ccc(F)cc1)C(=O)N(C)C (stereo not given)
[4]
  AC50: 21.8 µM (active)
[5]
  EC50: 15.7 µM (active)

## Cc1noc(C)c1C(=O)N1CCC2(CCCN(c3ccccn3)C2)CC1
[3]
  AC50: 20 µM (inconclusive)

## COc1ccc(-n2c(=O)cnc3cnc(OC)nc32)cc1
[2]
  AC50: 20 µM (inconclusive)

## O=C(Cc1cc(O)n[nH]1)N/N=C/c1cccc(Cl)c1Cl
[4]
  AC50: 4.36 µM (active) and 2.36 µM (active)
[5]
  EC50: 1.51 µM (active) and 1.71 µM (active)

## CC[C@H]1OC(=O)[C@H](C)[C@@H](O[C@H]2C[C@@](C)(OC)[C@@H](O)[C@H](C)O2)[C@H](C)[C@@H](O[C@@H]2O[C@H](C)C[C@H](N(C)C)[C@H]2O)[C@](C)(O)C[C@@H](C)C(=NOCOCCOC)[C@H](C)[C@@H](O)[C@]1(C)O
[6]
  EC50: < 0.06 µM (active)
[7]
  EC50: < 0.06 µM (active)

## COc1cccc(Nc2ncc3nc(-c4ccc(Cl)cc4)c(=O)n(CCC#N)c3n2)c1
[2]
  AC50: 5.01 µM (inconclusive)
[3]
  AC50: 2 µM (inconclusive)

## Cc1ccc(OCC(=O)NNC(=O)c2cccnc2)cc1
[1]; read-out: AC50
  AC50: 3.16 µM (inconclusive)
[3]
  AC50: 25.1 µM (inconclusive)

Source: ChEMBL document CHEMBL1201862, “PubChem BioAssay data set” (2004)
